PubChem BioAssay (NCI)
Several values for one entry are separate records, joined by “and”; a condition that tells them apart may be missing. Equal values may be shown once.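 Test compounds were applied to cells in 96-well plates for 48 hours at 5 doses. GI50: concentration for 50% inhibition of growth. TGI denotes the concentration required for complete inhibition of growth.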

Tests used:
Assay in all cases: NCI tumour cell line growth inhibition, 48 h
RXF 393 renal = tested on: RXF 393 renal
UACC-257 melanoma = tested on: UACC-257 melanoma
COLO 205 colon = tested on: COLO 205 colon
SK-MEL-28 melanoma = tested on: SK-MEL-28 melanoma
DU-145 prostate = tested on: DU-145 prostate
SK-MEL-2 melanoma = tested on: SK-MEL-2 melanoma
SW-620 colon = tested on: SW-620 colon
HL-60(TB) leukemia = tested on: HL-60(TB) leukemia
HT29 colon = tested on: HT29 colon
OVCAR-3 ovarian = tested on: OVCAR-3 ovarian

SMILES | GI50 (RXF 393 renal) | TGI (RXF 393 renal) | GI50 (UACC-257 melanoma) | TGI (UACC-257 melanoma) | GI50 (COLO 205 colon) | TGI (COLO 205 colon) | GI50 (SK-MEL-28 melanoma) | TGI (SK-MEL-28 melanoma) | GI50 (DU-145 prostate) | TGI (DU-145 prostate) | GI50 (SK-MEL-2 melanoma) | TGI (SK-MEL-2 melanoma) | GI50 (SW-620 colon) | TGI (SW-620 colon) | GI50 (HL-60(TB) leukemia) | TGI (HL-60(TB) leukemia) | GI50 (HT29 colon) | TGI (HT29 colon) | GI50 (OVCAR-3 ovarian) | TGI (OVCAR-3 ovarian)
O=C(CCCCCCSc1nc(-c2ccc(Cl)cc2)cc(-c2ccc(Cl)cc2)n1)NO | 1.07 µM | 2.83 µM | 2.15 µM | > 50 µM | 1.55 µM | 8.04 µM | 2.04 µM | > 50 µM | 1.46 µM | 4.9 µM | 4.02 µM | 18.4 µM | 1.71 µM | 24.2 µM | 1.97 µM | > 50 µM | 1.41 µM | 7.46 µM | 1.38 µM | 4.91 µM
CN(C[C@@H]1COCCO1)S(=O)(=O)Nc1ccc2ccc3ncc(-c4cnn(C)c4)cc3c(=O)c2c1 | 1.1 µM | 6.71 µM | > 100 µM | > 100 µM | 19.3 µM | > 100 µM | > 66.8 µM | > 100 µM | 6.86 µM | > 100 µM | 3.12 µM | > 29.4 µM | 4.74 µM | > 100 µM | 6.77 µM | > 100 µM | 19.7 µM | > 100 µM | 11.8 µM | > 100 µM
O=C(OCc1ccc2c(Cl)cc(Cl)c(O)c2n1)c1cc2ccccc2[nH]1 | 0.338 µM | 1.08 µM | 0.88 µM | 3 µM | 0.834 µM | 2.45 µM | 0.532 µM | 1.62 µM | 0.916 µM | 2.19 µM | 1.47 µM | 3.25 µM | 0.241 µM | 0.613 µM | 0.374 µM | 1.69 µM | 0.32 µM | 1.03 µM | 0.198 µM | 0.398 µM
C[C@H]1C(Oc2ccc(O)cc2)OC2OC3(C)CCC4[C@H](C)CCC1C24OO3 (stereo not given in full) | 19.1 µM | 41.3 µM | 13.1 µM | 28.4 µM | 0.867 µM | 13.7 µM | 18.4 µM | 39.5 µM | 20.1 µM | 43.2 µM | 7.1 µM | 23 µM | 8.74 µM | 43.2 µM | 0.57 µM | 24.4 µM | 8.86 µM | 27.4 µM | 6.12 µM | 32.8 µM
COc1ccc(C(=O)COc2cccc(/C=C3\CSc4ccc(C)cc4C3=O)c2)cc1 | 19.9 µM | 49 µM | 49.2 µM | > 100 µM | 31.8 µM | > 100 µM | 17.4 µM | 45.5 µM | 64.5 µM | > 100 µM | 15.9 µM | > 100 µM | 2.03 µM | 4.74 µM | 5.44 µM | 43.3 µM | 6.02 µM | > 100 µM | 15.4 µM | 57.6 µM
O=C1/C(=C/c2ccccc2)CN(C(=O)OCc2ccccc2)C/C1=C\c1ccccc1 | – | 19.8 µM | 9.19 µM | 28.3 µM | – | 34.1 µM | – | 32.8 µM | – | > 100 µM | – | 44.8 µM | 1.44 µM | 3.72 µM and 15.5 µM | – | 5.43 µM | 1.87 µM | 6.31 µM and 25.5 µM | – | 10 µM
CCN1C(=O)N(c2ccccc2)C2NN=c3s/c(=C4\C(=O)N(C(C)C)c5ccccc54)c(=O)n3C21 (stereo not given) | 0.612 µM | 2.63 µM | > 51.8 µM | > 100 µM | 0.54 µM | 24.5 µM | 2.71 µM | > 100 µM | 1.41 µM | > 29.4 µM | 5.99 µM | > 100 µM | 0.891 µM | > 100 µM | 1.03 µM | > 23.6 µM | 1.08 µM | > 100 µM | 0.886 µM | 3.1 µM
COc1ccccc1S(=O)(=O)Nc1ccc2c(c1)CN(C)C(=O)N2 | 4.72 µM and 5.16 µM | 28.3 µM and > 60.2 µM | 4.46 µM and 3.86 µM | > 100 µM | 2.61 µM and 2.8 µM | > 100 µM | 5.62 µM and 7.41 µM | > 100 µM | 67.4 µM and 33.1 µM | > 100 µM | 6.48 µM and 29.5 µM | > 100 µM | 20.3 µM and 14.5 µM | > 100 µM | 1.18 µM and 2.7 µM | > 100 µM | 2.55 µM and 2.26 µM | > 100 µM | 4.71 µM | > 100 µM
COc1ccc2c(c1)[n+](=O)c(C(=O)/C=C/c1cc(OC)c(OC)c(OC)c1)c(C)n2[O-] | 6.47 µM | 21.5 µM | 34.1 µM | > 100 µM | 65 µM | > 100 µM | > 100 µM | > 100 µM | 10.7 µM | 25.4 µM | 33.7 µM | > 100 µM | > 100 µM | > 100 µM | > 100 µM | > 100 µM | > 100 µM | > 100 µM | 27.3 µM | > 100 µM
CCCCn1sc(=O)n(Cc2ccc(CNC(=O)OCc3ccc4c(Br)cc(Br)c(O)c4n3)cc2)c1=O | 0.47 µM | > 100 µM | > 100 µM | > 100 µM | 24.8 µM | > 100 µM | – | > 100 µM | 0.4 µM | – | 1.28 µM | > 100 µM | 0.42 µM | > 100 µM | 0.374 µM | – | 28.6 µM | > 100 µM | 0.292 µM | 0.8 µM
CCc1nc(N)nc(N)c1-c1ccc(NCCc2ccccc2)c([N+](=O)[O-])c1 | – | 40.7 µM | – | 26.2 µM | – | 16.9 µM | – | 28.2 µM | – | > 53.8 µM | – | 36.7 µM | – | > 79.4 µM | – | 6.77 µM | – | 22.4 µM | – | 32.2 µM
CCCCCCCCCCCCOC1C(CNC(=O)C2OC3OC(C)(C)OC3C2NC(=O)CN2CCCCCC2)OC2OC(C)(C)OC21 (stereo not given) | 2.87 µM | 8.6 µM | 3.14 µM | 8.75 µM | 2.49 µM | 6.76 µM | 1.72 µM | 3.4 µM | 8.23 µM | 20.5 µM | 5.69 µM | 12 µM | 3.38 µM | 11.1 µM | 1.87 µM | 4.39 µM | 1.87 µM | 3.74 µM | 8.39 µM | 23.8 µM
O=C(NCCCCCCCCNC(=O)c1cccc2ccccc12)c1cccc2ccccc12 | – | 7.74 µM | – | > 100 µM | – | > 100 µM | – | > 94.4 µM | – | > 100 µM | – | > 100 µM | – | > 100 µM | – | > 100 µM | – | > 100 µM | – | > 79.9 µM
CSc1ccc(/C=C/c2ccnc3ccccc23)cc1 | – | 33 µM | – | 32.9 µM | – | 27.5 µM | – | 32.6 µM | – | 32.7 µM | – | 30.1 µM | – | 27 µM | – | 24.4 µM | – | 31 µM | – | 25.9 µM
